Measured values from patent US20230212549A1, “COMPOUNDS COMPRISING A […] LIGAND AND USE THEREOF” (priority 2021, published 2023).
Numbered stars: 1 amine (or outer) side, 2 acyl side, 3 side chain; on linkers, the order of the positions; unused ones are H or OH. Bridge positions count the residues as written; N and C are the ends. Square brackets hold non-standard residues; d marks the D form. Peptide text beside a SMILES is read from it. * marks the point of attachment. X13 = O=C(O)CN1CCN(CC(=O)O)CCN(CC(=O)N2CCN(Cc3cc(C[*:1])cc(C[*:2])c3)CC2)CCN(CC(=O)O)CC1; X12 = O=C(O)CN1CCN(CC(=O)O)CCN(CC(=O)NCCCOCCOCCOCCCN*)CCN(CC(=O)O)CC1; DOTA = O=C(O)CN1CCN(CC(=O)O)CCN(CC(=O)*)CCN(CC(=O)O)CC1; Oic = O=C(O)[C@@H]1C[C@@H]2CCCC[C@@H]2N1; Phe(4-Cl) = N[C@@H](Cc1ccc(Cl)cc1)C(=O)O; mXylylene = c1cc(C[*:1])cc(C[*:2])c1; PEG6 = NCCOCCOCCOCCOCCOCCOCCC(=O)O; Pyrazinecarbonyl = O=C(c1cnccn1)*; NMeF = CN[C@@H](Cc1ccccc1)C(=O)O; X29 = O=C(CN1CCN([*:1])CC1)[*:2]; Suc = O=C(CCC(=O)[*:2])[*:1]; Nle = CCCC[C@H](N)C(=O)O; Nphe = O=C(O)CNCc1ccccc1; Orn = NCCC[C@H](N)C(=O)O; X2 = NCCNCC(CNCCN)C(=O)*; Hexanoyl = CCCCCC(=O)*; Inp = O=C(O)C1CCNCC1

Legend:
[1] = molecular target: T1, FAP-expressing human WI-38 fibroblasts (Homo sapiens, UniProt Q12884); test: Competitive FACS binding assay
T1 construct: FAP-expressing human WI-38 fibroblasts (ECACC) were cultured in EMEM; host or cells: WI-38 human fibroblasts
Protocol: Cells were analyzed in an Attune NxT flow cytometer. […] […].
Cells were analyzed in an Attune NxT flow cytometer. […]

[2] = molecular target: Human recombinant FAP (Homo sapiens, UniProt Q12884); test: FRET-based FAP protease activity assay; assay type: biochemical; parameters: purchased R&D systems 3715-SE
[3] = pIC50 Category (Activity), FRET-peptide substrate, 37° C.
[4] = pIC50 Category (Activity), FRET-based FAP protease activity assay, recombinant human FAP, 37° C.
[5] = pIC50 Category (activity), Recombinant human FAP

T1 sequence (Q12884 whole entry): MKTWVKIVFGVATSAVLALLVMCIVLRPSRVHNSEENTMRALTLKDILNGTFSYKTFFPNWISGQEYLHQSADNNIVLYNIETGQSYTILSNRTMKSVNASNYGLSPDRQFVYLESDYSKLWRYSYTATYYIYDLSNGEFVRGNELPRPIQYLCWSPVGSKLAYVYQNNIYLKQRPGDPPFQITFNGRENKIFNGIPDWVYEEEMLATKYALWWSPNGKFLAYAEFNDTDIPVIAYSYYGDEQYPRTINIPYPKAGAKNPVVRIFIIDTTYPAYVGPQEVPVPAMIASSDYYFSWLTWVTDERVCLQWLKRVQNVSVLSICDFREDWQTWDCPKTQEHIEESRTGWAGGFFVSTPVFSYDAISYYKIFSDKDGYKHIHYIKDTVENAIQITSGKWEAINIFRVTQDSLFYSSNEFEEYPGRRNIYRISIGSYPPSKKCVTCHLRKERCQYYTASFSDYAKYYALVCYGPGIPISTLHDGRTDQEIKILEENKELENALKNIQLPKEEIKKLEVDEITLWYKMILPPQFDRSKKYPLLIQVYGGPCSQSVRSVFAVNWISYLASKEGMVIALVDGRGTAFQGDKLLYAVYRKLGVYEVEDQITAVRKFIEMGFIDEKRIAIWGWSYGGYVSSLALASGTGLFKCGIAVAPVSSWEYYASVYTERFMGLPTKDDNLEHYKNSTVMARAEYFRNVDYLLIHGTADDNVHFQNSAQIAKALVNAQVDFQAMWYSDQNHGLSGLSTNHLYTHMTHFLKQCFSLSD
Human recombinant FAP, sequence (Q12884 whole entry): as above

Row | IC50 [1] [nM] | IC50 [2, 3] [nM] | IC50 [2, 4] [nM] | Structure (SMILES) | IC50 [2, 5] [nM]
1 | 10 to 79.4 | 10 to 79.4 | – | C=CCOC(=O)N[C@H]1CSCc2cc(CSCCNC(=O)CN3CCN(CC(=O)O)CCN(CC(=O)O)CCN(CC(=O)O)CC3)cc(c2)CSC[C@@H](C(=O)O)NC(=O)[C@H](Cc2ccccc2)NC(=O)[C@H](CCC(N)=O)NC(=O)[C@H]([C@@H](C)O)NC(=O)[C@@H]2CCCN2C(=O)[C@@H]2CCCN2C1=O [3BP-3915, Alloc-[Cys(tMeBn(DOTA-AET))-Pro-Pro-Thr-Gln-Phe-Cys]-OH] | –
2 | > 1000 | – | 100 to 794 | CCCCCC(=O)N[C@H]1CSCc2cccc(c2)CSC[C@@H](C(N)=O)NC(=O)[C@H](Cc2ccccc2)NC(=O)[C@H](CCC(=O)O)NC(=O)[C@H](CCCNC(=O)c2cnccn2)NC(=O)[C@@H]2CCCN2C(=O)[C@@H]2CCCN2C1=O [3BP-3355, Hex-[Cys(3MeBn)-Pro-Pro-Opc-Glu-Phe-Cys]-NH2] (Hexanoyl-CPP[Orn](Pyrazinecarbonyl)EFC-NH2; linker 1-7 via mXylylene) | –
3 | < 10 | – | < 10 | CC(C)C[C@H](NC(=O)CCC(=O)NCCCOCCOCCOCCCNC(=O)CN1CCN(CC(=O)O)CCN(CC(=O)O)CCN(CC(=O)O)CC1)C(=O)N[C@H]1CSCc2cccc(c2)CSC[C@@H](C(=O)N[C@@H](CC(=O)O)C(=O)N[C@@H](Cc2c[nH]cn2)C(=O)N[C@@H](Cc2ccccc2)C(=O)N[C@@H](CCCNC(=N)N)C(=O)N[C@@H](CC(=O)O)C(N)=O)NC(=O)[C@H](Cc2ccccc2)NC(=O)[C@H](CCC(=O)O)NC(=O)[C@H]([C@@H](C)O)NC(=O)[C@@H]2CCCN2C(=O)[C@@H]2CCCN2C1=O [3BP-3172, DOTA-Ttds-Leu-[Cys(3MeBn)-Pro-Pro-Thr-Glu-Phe-Cys]-Asp-His-Phe-Arg-Asp-NH2] ({X12-Suc}-LCPPTEFCDHFRD-NH2; linker 2-8 via mXylylene) | –
4 | 100 to 794 | – | 100 to 794 | CCCCCC(=O)N[C@H]1CSCc2cccc(c2)CSC[C@@H](C(N)=O)NC(=O)[C@H](Cc2ccc(Cl)cc2)NC(=O)[C@H](CCC(=O)O)NC(=O)[C@H]([C@@H](C)O)NC(=O)[C@@H]2CCCN2C(=O)[C@@H]2CCCN2C1=O [3BP-3369, Hex-[Cys(3MeBn)-Pro-Pro-Thr-Glu-Pcf-Cys]-NH2] (Hexanoyl-CPPTE[Phe(4-Cl)]C-NH2; linker 1-7 via mXylylene) | –
5 | > 1000 | – | > 1000 | C[C@@H](O)[C@@H]1NC(=O)[C@@H]2CCCN2C(=O)[C@@H]2CCCN2C(=O)[C@@H](NC(=O)CCCN)CSCc2cccc(c2)CSC[C@@H](C(N)=O)NC(=O)[C@H](Cc2ccccc2)NC(=O)[C@H](CCC(N)=O)NC1=O [3BP-3761, H-Gab-[Cys(3MeBn)-Pro-Pro-Thr-Gln-Phe-Cys]-NH2] | –
6 | 10 to 79.4 | 10 to 79.4 | – | C[C@@H](O)[C@@H]1NC(=O)[C@@H]2CCCN2C(=O)[C@@H]2CCCN2C(=O)[C@@H](NC(=O)[C@H]2CCCO2)CSCc2cc(CSCCNC(=O)CN3CCN(CC(=O)O)CCN(CC(=O)O)CCN(CC(=O)O)CC3)cc(c2)CSC[C@@H](C(=O)O)NC(=O)[C@H](Cc2ccccc2)NC(=O)[C@H](CCC(N)=O)NC1=O [3BP-3911, Rth-[Cys(tMeBn(DOTA-AET))-Pro-Pro-Thr-Gln-Phe-Cys]-OH] | –
7 | 100 to 794 | 100 to 794 | – | C[C@@H](O)[C@@H]1NC(=O)[C@@H]2CCCN2C(=O)[C@@H]2CCCN2C(=O)[C@@H](NC(=O)C2CCCCC2)CSCc2cc(CSCCNC(=O)CN3CCN(CC(=O)O)CCN(CC(=O)O)CCN(CC(=O)O)CC3)cc(c2)CSC[C@@H](C(=O)O)NC(=O)[C@H](Cc2ccccc2)NC(=O)[C@H](CCC(N)=O)NC1=O [3BP-3908, Chex-[Cys(tMeBn(DOTA-AET))-Pro-Pro-Thr-Gln-Phe-Cys]-OH] | –
8 | 100 to 794 | – | 100 to 794 | C[C@@H](O)[C@@H]1NC(=O)[C@@H]2CCCN2C(=O)[C@@H]2CCCN2C(=O)[C@@H](NC(=O)C2CCN(C(=O)CN3CCN(CC(=O)O)CCN(CC(=O)O)CCN(CC(=O)O)CC3)CC2)CSCc2cccc(c2)CSC[C@@H](C(=O)N[C@@H](CC(=O)O)C(=O)N[C@@H](Cc2c[nH]cn2)C(=O)N(C)[C@@H](Cc2ccccc2)C(=O)N[C@@H](CCCNC(=N)N)C(=O)N[C@@H](CC(=O)O)C(N)=O)NC(=O)[C@H](Cc2ccccc2)NC(=O)[C@H](CCC(=O)O)NC1=O [3BP-3265, DOTA-Inp-[Cys(3MeBn)-Pro-Pro-Thr-Glu-Phe-Cys]-Asp-His-Nmf-Arg-Asp-NH2] ({DOTA-Inp}-CPPTEFCDH[NMeF]RD-NH2; linker 1-7 via mXylylene) | –
9 | > 1000 | – | 100 to 794 | C[C@@H](O)[C@@H]1NC(=O)[C@@H]2CCCN2C(=O)[C@@H]2CCCN2C(=O)[C@@H](NC(=O)Cc2ccncc2)CSCc2cccc(c2)CSC[C@@H](C(N)=O)NC(=O)[C@H](Cc2ccccc2)NC(=O)[C@H](CCC(N)=O)NC1=O [3BP-3762, 4Pya-[Cys(3MeBn)-Pro-Pro-Thr-Gln-Phe-Cys]-NH2] | –
10 | < 10 | < 10 | – | CCCOCC(=O)N[C@H]1CSCc2cc(CSCCNC(=O)CN3CCN(CC(=O)O)CCN(CC(=O)O)CCN(CC(=O)O)CC3)cc(c2)CSC[C@@H](C(=O)O)NC(=O)[C@H](Cc2ccccc2)NC(=O)[C@H](CCC(N)=O)NC(=O)[C@H]([C@@H](C)O)NC(=O)[C@@H]2CCCN2C(=O)[C@@H]2CCCN2C1=O [3BP-3938, PrOAc-[Cys(tMeBn(DOTA-AET))-Pro-Pro-Thr-Gln-Phe-Cys]-OH] | –

More lines, now with the values behind:

Row | Structure (SMILES) | IC50 [1] [nM] | IC50 [2, 3] [nM] | IC50 [2, 4] [nM] | IC50 [2, 5] [nM]
11 | CCCCCC(=O)N[C@H]1CSCc2cc(cc(CN3CCN(C(=O)CN4CCN(CC(=O)O)CCN(CC(=O)O)CCN(CC(=O)O)CC4)CC3)c2)CSC[C@@H](C(=O)N[C@@H](CC(=O)O)C(N)=O)NC(=O)[C@@H]2CCCN2C(=O)[C@@H]2CCCN2C(=O)[C@H]([C@@H](C)O)NC(=O)[C@H](CCC(N)=O)NC(=O)[C@H](Cc2ccccc2)NC1=O [3BP-3855, Hex-[Cys(tMeBn(DOTA-PP))-Phe-Gln-Thr-Pro-Pro-Cys]-Asp-NH2] (Hexanoyl-CFQTPPCD-NH2; linker 1-7 via X13) | > 1000 | – | > 1000 | –
12 | CCCCCC(=O)N[C@H]1CSCc2cc(CSCCNC(=O)CCC(=O)NCCCOCCOCCOCCCNC(=O)CCC(=O)NCCCOCCOCCOCCCNC(=O)CCC(=O)NCCCOCCOCCOCCCNC(=O)CCC(=O)NCCCOCCOCCOCCCNC(=O)CCCC[C@@H]3SC[C@@H]4NC(=O)N[C@@H]43)cc(c2)CSC[C@@H](C(=O)O)NC(=O)[C@H](Cc2ccccc2)NC(=O)[C@H](CCC(N)=O)NC(=O)[C@H]([C@@H](C)O)NC(=O)[C@@H]2CCCN2C(=O)[C@@H]2CCCN2C1=O [3BP-4170, Hex-[Cys-(tMeBn(Bio-Ttds-Ttds-Ttds-Ttds-AET))-Pro-Pro-Thr-Gln-Phe-Cys]-OH] | 10 to 79.4 | 10 to 79.4 | – | –
13 | CCCC[C@H](NC(=O)CCOCCOCCOCCOCCOCCOCCNC(=O)CN1CCN(C(=O)C(CNCCN)CNCCN)CC1)C(=O)N[C@H]1CSCc2cccc(c2)CSC[C@@H](C(=O)O)NC(=O)[C@H](Cc2ccccc2)NC(=O)[C@H](CCC(=O)O)NC(=O)[C@H]([C@@H](C)O)NC(=O)[C@@H]2CCCN2C(=O)[C@@H]2CCCN2C1=O [3BP-4781, N4Ac-PPAc-PEG6-Nle-[Cys(3MeBn)-Pro-Pro-Thr-Glu-Phe-Cys]-OH] (X2-[X29][PEG6][Nle]CPPTEFC-OH; linker 4-10 via mXylylene) | 10 to 79.4 | – | – | 10 to 79.4
14 | CCCCCC(=O)N[C@H]1CSCc2cc(cc(CN3CCN(C(=O)CN4CCN(CC(=O)O)CCN(CC(=O)O)CCN(CC(=O)O)CC4)CC3)c2)CSC[C@@H](C(=O)N[C@@H](CC(=O)O)C(N)=O)NC(=O)[C@H](Cc2ccccc2)NC(=O)[C@H](C)NC(=O)[C@H](C)NC(=O)[C@@H]2CCCN2C(=O)[C@@H]2CCCN2C1=O [3BP-3746, Hex-[Cys(tMeBn(DOTA-PP))-Pro-Pro-Ala-Ala-Phe-Cys]-Asp-NH2] (Hexanoyl-CPPAAFCD-NH2; linker 1-7 via X13) | > 1000 | – | 100 to 794 | –
15 | CCCCCC(=O)N[C@H]1CSCc2cc(cc(CN3CCN(C(=O)CN4CCN(CC(=O)O)CCN(CC(=O)O)CCN(CC(=O)O)CC4)CC3)c2)CSC[C@@H](C(=O)N[C@@H](CC(=O)O)C(N)=O)NC(=O)[C@H](Cc2ccccc2)NC(=O)[C@H](C)NC(=O)[C@H]([C@@H](C)O)NC(=O)[C@@H]2CCCN2C(=O)[C@@H]2CCCN2C1=O [3BP-3739, Hex-[Cys(tMeBn(DOTA-PP))-Pro-Pro-Thr-Ala-Phe-Cys]-Asp-NH2] (Hexanoyl-CPPTAFCD-NH2; linker 1-7 via X13) | 100 to 794 | – | 100 to 794 | –
16 | CCCCCC(=O)N[C@H]1CSCc2cccc(c2)CSC[C@@H](C(N)=O)NC(=O)[C@H](Cc2ccccc2)NC(=O)[C@H](CCC(N)=O)NC(=O)[C@H]([C@@H](C)O)NC(=O)[C@@H]2CCCN2C(=O)CN(Cc2ccccc2)C1=O [3BP-3748, Hex-[Cys(3MeBn)-Nphe-Pro-Thr-Gln-Phe-Cys]-NH2] (Hexanoyl-C[Nphe]PTQFC-NH2; linker 1-7 via mXylylene) | > 1000 | – | > 1000 | –
17 | CSCC[C@H](NC(C)=O)C(=O)N[C@H]1CSCc2cccc(c2)CSC[C@@H](C(=O)N[C@@H](CC(=O)O)C(=O)N[C@@H](Cc2c[nH]cn2)C(=O)N[C@@H](Cc2ccccc2)C(=O)N[C@@H](CCCNC(=N)N)C(=O)N[C@@H](CC(=O)O)C(N)=O)NC(=O)[C@H](Cc2ccccc2)NC(=O)[C@H](CCC(=O)O)NC(=O)[C@H]([C@@H](C)O)NC(=O)[C@@H]2CCCN2C(=O)[C@@H]2C[C@@H]3CCCC[C@@H]3N2C1=O [3BP-3216, Ac-Met-[Cys(3MeBn)-Oic-Pro-Thr-Glu-Phe-Cys]-Asp-His-Phe-Arg-Asp-NH2] (Ac-MC[Oic]PTEFCDHFRD-NH2; linker 2-8 via mXylylene) | 100 to 794 | – | 100 to 794 | –
18 | CCCCNC(=O)N[C@H]1CSCc2cc(CSCCNC(=O)CCC(C(=O)O)N3CCN(CC(=O)O)CCN(CC(=O)O)CC3)cc(c2)CSCC(C(=O)O)NC(=O)[C@H](Cc2ccccc2)NC(=O)[C@H](CCC(N)=O)NC(=O)[C@H]([C@@H](C)O)NC(=O)[C@@H]2CCCN2C(=O)[C@@H]2CCCN2C1=O (stereo partly drawn) [3BP-4723, nBu-CAyl-[Cys(tMeBn(NODAGA-AET))-Pro-Pro-Thr-Gln-Phe-Cys]-OH] | < 10 | – | – | < 10
